Data on one compound can be found in ChEMBL document CHEMBL4334512, “Rationally Designed, Conformationally Constrained Inverse Agonists of RORγt-Identification of a Potent, Selective Series with Biologic-Like in Vivo Efficacy” (J Med Chem, 2019).

Each structure is given as a SMILES string.

Series [1] concerns the target T1, Nuclear receptor ROR-beta (Homo sapiens, UniProt Q92753).
T1 sequence (Q92753 whole entry): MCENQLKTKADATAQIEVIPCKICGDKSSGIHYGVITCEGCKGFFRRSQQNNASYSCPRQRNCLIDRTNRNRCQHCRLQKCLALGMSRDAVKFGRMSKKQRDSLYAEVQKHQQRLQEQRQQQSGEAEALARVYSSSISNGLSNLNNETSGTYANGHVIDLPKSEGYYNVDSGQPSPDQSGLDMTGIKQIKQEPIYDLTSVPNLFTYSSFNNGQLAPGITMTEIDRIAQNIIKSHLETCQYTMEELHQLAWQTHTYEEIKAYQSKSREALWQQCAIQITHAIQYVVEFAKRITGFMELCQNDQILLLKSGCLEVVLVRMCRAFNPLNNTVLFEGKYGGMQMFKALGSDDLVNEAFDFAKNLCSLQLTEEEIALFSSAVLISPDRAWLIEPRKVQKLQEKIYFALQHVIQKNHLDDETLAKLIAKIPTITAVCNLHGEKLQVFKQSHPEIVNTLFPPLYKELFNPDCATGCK
The series is described as follows: Activity at RORbeta (unknown origin).

Series [2] concerns the target T2, Nuclear receptor ROR-alpha (Homo sapiens, UniProt P35398).
T2 sequence (P35398 whole entry): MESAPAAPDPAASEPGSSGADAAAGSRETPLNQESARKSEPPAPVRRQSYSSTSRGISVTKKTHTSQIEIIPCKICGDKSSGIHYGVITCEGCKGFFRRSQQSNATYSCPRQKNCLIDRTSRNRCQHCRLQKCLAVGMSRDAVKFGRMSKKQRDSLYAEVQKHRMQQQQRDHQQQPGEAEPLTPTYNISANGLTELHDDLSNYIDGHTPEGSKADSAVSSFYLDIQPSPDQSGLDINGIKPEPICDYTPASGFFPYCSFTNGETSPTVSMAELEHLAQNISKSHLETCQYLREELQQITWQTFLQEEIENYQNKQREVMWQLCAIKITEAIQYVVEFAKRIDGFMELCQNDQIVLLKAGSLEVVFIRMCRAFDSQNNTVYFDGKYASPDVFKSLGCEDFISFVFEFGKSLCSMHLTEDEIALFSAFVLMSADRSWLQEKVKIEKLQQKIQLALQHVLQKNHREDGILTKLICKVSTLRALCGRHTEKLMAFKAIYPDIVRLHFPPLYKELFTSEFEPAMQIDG
The series is described as follows: Activity at RORalpha (unknown origin).

The subject of series [3] is Mus musculus. The series is described as follows: Suppression of IL-17F RNA expression in skin region of mouse model of IL-23 induced acanthosis model of psoriasis at 3 mg/kg, po BID for 10 days measured every other day relative to control. The series is classed as functional. As to conditions: 240 h.
Series [4] deals with Mus musculus. The series is described as follows: Suppression of IL-22 RNA expression in skin region of mouse model of IL-23 induced acanthosis model of psoriasis at 10 mg/kg, po BID for 10 days measured every other day relative to control. The format is functional. As to conditions: 240 h.
Series [5] deals with T3, Oxysterols receptor LXR-alpha (Homo sapiens, UniProt Q13133).
T3 sequence (Q13133 whole entry): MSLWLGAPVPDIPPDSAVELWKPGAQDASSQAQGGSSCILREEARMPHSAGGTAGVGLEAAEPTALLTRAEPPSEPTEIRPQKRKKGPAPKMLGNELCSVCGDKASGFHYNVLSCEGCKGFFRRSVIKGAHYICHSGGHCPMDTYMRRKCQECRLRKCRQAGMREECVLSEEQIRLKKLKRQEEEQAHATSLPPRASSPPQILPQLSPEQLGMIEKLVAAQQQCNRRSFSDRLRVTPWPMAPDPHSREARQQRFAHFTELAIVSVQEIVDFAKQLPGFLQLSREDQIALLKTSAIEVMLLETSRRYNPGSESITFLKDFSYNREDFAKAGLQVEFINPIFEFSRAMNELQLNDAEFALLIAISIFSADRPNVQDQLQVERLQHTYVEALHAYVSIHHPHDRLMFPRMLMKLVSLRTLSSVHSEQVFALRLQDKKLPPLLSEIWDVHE
The series is described as follows: Activity at LXRalpha (unknown origin).

Another series addresses Cytochrome P450 2C9 (Homo sapiens, UniProt P11712). The series is described as follows: Inhibition of recombinant CYP2C9 (unknown origin). The format is ADME.
For series [6], the system named is Mus musculus. The series is described as follows: Suppression of ear thickness in mouse model of IL-23 induced acanthosis model of psoriasis at 3 mg/kg, po BID for 10 days measured every other day relative to anti-IL-23 positive control. The series is classed as functional.
Series [7] deals with Mus musculus. The series is described as follows: Suppression of IL-17F RNA expression in skin region of mouse model of IL-23 induced acanthosis model of psoriasis at 3 to 30 mg/kg, po BID for 10 days measured every other day. The series is classed as functional.
The target of series [8] is T4, Nuclear receptor ROR-gamma (Mus musculus, UniProt P51450).
T4 sequence (P51450 whole entry): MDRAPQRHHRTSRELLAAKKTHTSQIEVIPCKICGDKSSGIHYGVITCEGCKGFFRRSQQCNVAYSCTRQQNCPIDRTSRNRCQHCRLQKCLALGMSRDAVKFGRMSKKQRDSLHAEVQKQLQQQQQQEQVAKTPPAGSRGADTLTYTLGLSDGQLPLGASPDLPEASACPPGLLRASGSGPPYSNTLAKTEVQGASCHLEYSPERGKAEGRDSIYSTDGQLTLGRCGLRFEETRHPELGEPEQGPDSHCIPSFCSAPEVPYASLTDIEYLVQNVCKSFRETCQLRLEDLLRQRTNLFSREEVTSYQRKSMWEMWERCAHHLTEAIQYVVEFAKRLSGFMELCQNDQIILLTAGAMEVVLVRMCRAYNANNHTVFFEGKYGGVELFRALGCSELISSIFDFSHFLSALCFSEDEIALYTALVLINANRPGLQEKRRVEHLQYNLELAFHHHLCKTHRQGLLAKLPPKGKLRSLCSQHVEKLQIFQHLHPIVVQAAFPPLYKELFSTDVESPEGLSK
The series is described as follows: Inverse agonist activity at RORgammat in CD3/CD28/IL-1/IL-23-stimulated C57/B6 mouse whole blood assessed as reduction in IL17A production incubated for 1 hr before stimulation with CD3/CD28/IL-1/IL-23 for 24 hrs by AlphaLISA method. The series is classed as tissue-based.

The target of the next series is Cytochrome P450 2D6 (Homo sapiens, UniProt P10635). The series is described as follows: Inhibition of recombinant CYP2D6 (unknown origin). The series is classed as ADME.
Cytochrome P450 2D6, sequence (P10635 whole entry, the tested form may be a part): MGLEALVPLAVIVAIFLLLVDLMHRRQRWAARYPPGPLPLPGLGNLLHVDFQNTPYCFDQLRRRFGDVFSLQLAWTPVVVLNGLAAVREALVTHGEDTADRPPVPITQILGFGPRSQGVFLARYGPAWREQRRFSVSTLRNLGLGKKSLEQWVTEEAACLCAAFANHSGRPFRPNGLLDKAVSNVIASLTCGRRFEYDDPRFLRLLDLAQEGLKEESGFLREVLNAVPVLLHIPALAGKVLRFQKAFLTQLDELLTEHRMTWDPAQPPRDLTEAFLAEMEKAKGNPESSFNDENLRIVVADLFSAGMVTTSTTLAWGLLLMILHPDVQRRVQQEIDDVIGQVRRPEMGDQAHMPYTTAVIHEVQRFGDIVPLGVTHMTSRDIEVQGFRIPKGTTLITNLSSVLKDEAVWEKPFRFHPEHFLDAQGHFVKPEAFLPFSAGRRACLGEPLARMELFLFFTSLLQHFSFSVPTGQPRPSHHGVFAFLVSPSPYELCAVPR
The target of series [9] is T1, Nuclear receptor ROR-beta. The series is described as follows: Agonist activity at RORbeta (unknown origin) by Gal4-Luc reporter gene assay. For orientation: Reporter assays use an easily measured gene product as a stand-in for the process of interest.
The nature of series [10]: Unbound fraction in human serum. The format is ADME, cell-free.

By IC50 is commonly meant the concentration that inhibits the measured activity by half. A word on the inhibition in vivo: it is how much of the control response was suppressed. For orientation: ED50 means the dose at which the effect has come halfway, by size or by number of responders. A higher ED50 goes with weaker potency. In general, EC50 refers to the concentration at which the effect is half-maximal. For orientation: fraction unbound means the share of the substance not bound to proteins or other matrix. Read a low fraction unbound as little free substance.

Cytochrome P450 2C9, sequence (P11712 whole entry): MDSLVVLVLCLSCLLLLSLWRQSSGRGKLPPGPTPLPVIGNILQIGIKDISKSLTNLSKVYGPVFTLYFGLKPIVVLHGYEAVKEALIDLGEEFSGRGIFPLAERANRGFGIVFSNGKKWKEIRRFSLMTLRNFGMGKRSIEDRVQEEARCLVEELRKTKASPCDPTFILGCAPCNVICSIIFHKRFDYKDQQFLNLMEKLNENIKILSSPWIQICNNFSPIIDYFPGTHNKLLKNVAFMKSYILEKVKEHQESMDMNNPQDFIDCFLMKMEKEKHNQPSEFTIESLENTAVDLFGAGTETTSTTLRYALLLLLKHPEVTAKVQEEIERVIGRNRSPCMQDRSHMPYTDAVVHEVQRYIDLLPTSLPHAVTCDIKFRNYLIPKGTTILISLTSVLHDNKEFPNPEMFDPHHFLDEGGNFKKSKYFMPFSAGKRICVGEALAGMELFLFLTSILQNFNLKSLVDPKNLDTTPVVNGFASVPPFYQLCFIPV

Turning to `O=C(N1CC[C@@]2(S(=O)(=O)c3ccc(F)cc3)c3ccc(C(F)(C(F)(F)F)C(F)(F)F)cc3CC[C@@H]12)C1(O)CCS(=O)(=O)CC1`, the IC50 in [1] is more than 10 µM; in series [2], more than 10 µM; in [5], more than 10 µM; at Cytochrome P450 2C9 it was 10 µM; on Cytochrome P450 2D6, more than 20 µM. In the series on Mus musculus [3], the inhibition in vivo at 3 mg/kg was determined as 41%. In the series on Mus musculus [4], this compound came in with an inhibition in vivo at 10 mg/kg of 92%. Moreover, the Efficacy in the series with Mus musculus [6] worked out at 48%. Further, the Activity result in the series on Mus musculus [7] was “Dose-dependent effect”. In addition, the ED50 in the series with Mus musculus [7] (240 h) was 3 mg/kg. The half-maximal effective concentration (EC50) in series [8] was 0.44 µM; in series [9], more than 10 µM. The compound also showed a fraction unbound in series [10] of 0.011.
